Measured values from PMC12040169 (PLOS Biology, 2025).
Values after ≈ are worked out from the molar mass of the structure shown. Like-named read-outs stand apart in the source and are kept apart here.

Assays:
[1] = biological target: T1, acyl-modification-free ctFabH (Chlamydia trachomatis, UniProt O84242); assay: intact protein LC/MS; MS/MS of tryptic peptides; assay type: binding; details: covalent; active site cysteine; 10 µM protein, 50 µM compound, pH 7.0, 10 min to 1 h
T1 construct: gene fabH
T1 sequence (O84242 2-327): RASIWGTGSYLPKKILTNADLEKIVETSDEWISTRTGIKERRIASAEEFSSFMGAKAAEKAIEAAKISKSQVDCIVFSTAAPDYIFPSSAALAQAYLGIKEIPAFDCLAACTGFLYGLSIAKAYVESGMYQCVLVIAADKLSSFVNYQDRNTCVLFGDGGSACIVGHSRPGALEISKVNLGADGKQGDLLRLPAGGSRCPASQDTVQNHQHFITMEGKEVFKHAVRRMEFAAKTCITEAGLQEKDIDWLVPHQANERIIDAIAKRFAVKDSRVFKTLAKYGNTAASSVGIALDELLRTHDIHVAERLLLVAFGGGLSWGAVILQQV

[2] = tested on: T2, C. albicans; assay: microbe, parasite or virus in culture; parameters: Microbial growth in liquid dilution assay, OD600 relative to DMSO control; details: Candida albicans, read-out: C. albicans, IC50 (µM) estimate
T2 construct: DSM 1577

[3] = tested on: T3, L. crispatus; assay: microbe, parasite or virus in culture; parameters: Microbial growth in liquid dilution assay, OD600 relative to DMSO control; details: Lactobacillus crispatus; estimated IC50; read-out: L. crispatus, IC50 (µM) estimate
T3 construct: DSM 20584

[4] = tested on: T4, CTL2-GFP (C. trachomatis L2/434/Bu, GFP-expressing); assay: microbe, parasite or virus in culture; parameters: species or system HeLa; C. trachomatis growth in HeLa, dose-response, mean of bulk GFP fluorescence and imaged total inclusion area; details: Chlamydia trachomatis, 28.5 h; mean of GFP and inclusion area
T4 construct: L2/434/Bu, GFP-expressing
How it was run: (§1)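 GFP/resorufin bulk fluorescence read → fix → Hoechst stain → high-content imaging. Inclusion total area + count = growth proxy; nuclei count = host viability proxy. MIC calc per earlier method.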

[5] = tested on: T5, L. iners; assay: organism not typed; parameters: Microbial growth in liquid dilution assay, OD600 relative to DMSO control; details: estimated IC50; read-out: L. iners, IC50 (µM) estimate
T5 construct: DSM 13335

[6] = biological target: T6, ctFabH (CTL2 FabH), His6(-fMet)SG-ctFabH (Chlamydia trachomatis, UniProt O84242); assay: continuous UV assay of acetoacetyl-CoA at […] nm; assay type: biochemical; details: covalent; 20 µM enzyme, 30 µM compound, 100 µM acetyl-CoA, 100 µM malonyl-CoA, pH 8.0, 25 °C, 50 mM MgCl2; with or without CoA preincubation
T6 construct: synthetic gene, modified pRSF-Duet1, E. coli host; partly acylated (mainly pentanoyl) as purified
T6 sequence (O84242 2-327): T1 sequence (O84242 2-327)

[7] = tested on: T7, C. trachomatis L2/434/Bu expressing GFP (CTL2-GFP); assay: microbe, parasite or virus in culture; parameters: C. trachomatis total inclusion area by high-content imaging, normalised to DMSO; details: Chlamydia trachomatis, HeLa, 28.5 h; read-out: IC50 (µM), total inclusion area
T7 construct: L2/434/Bu GFP intracellular growth in HeLa cells
How it was run: as §1

[8] = tested on: T7, C. trachomatis L2/434/Bu expressing GFP (CTL2-GFP); assay: microbe, parasite or virus in culture; parameters: species or system HeLa; C. trachomatis GFP growth in infected HeLa cells, bulk GFP fluorescence normalised to DMSO; details: Chlamydia trachomatis, 26 h; read-out: MIC (µM), bulk GFP fluorescence
Description: (§2) MICs were calculated as described above.

[9] = in vitro; parameters: Viability of infected HeLa host cells, resazurin conversion, bulk resorufin fluorescence relative to DMSO; details: human, hela cells; bulk resorufin, mean of 3
[10] = tested on: T8, B. thetaiotaomicron; assay: microbe, parasite or virus in culture; parameters: Microbial growth in liquid dilution assay, OD600 relative to DMSO control; details: Bacteroides thetaiotaomicron; estimated IC50; read-out: B. thetaiotaomicron, IC50 (µM) estimate
T8 construct: DSM 2079
How it was run: (§3)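 Compounds are added to commensal bacterial cultures in a dilution assay, with 30 µM among the concentrations used. Growth inhibition is then scored.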

[11] = tested on: T9, B. adolescentis; assay: microbe, parasite or virus in culture; parameters: Microbial growth in liquid dilution assay, OD600 relative to DMSO control; details: Bifidobacterium adolescentis; estimated IC50; read-out: B. adolescentis, IC50 (µM) estimate
T9 construct: DSM 20083
How it was run: as §3

[12] = tested on: T10, E. faecalis; assay: microbe, parasite or virus in culture; parameters: Microbial growth in liquid dilution assay, OD600 relative to DMSO control; details: Enterococcus faecalis; estimated IC50; read-out: E. faecalis, IC50 (µM) estimate
T10 construct: DSM 20478
How it was run: as §3

[13] = tested on: T11, E. coli; assay: microbe, parasite or virus in culture; parameters: Microbial growth in liquid dilution assay, OD600 relative to DMSO control; details: Escherichia coli; estimated IC50; read-out: E. coli, IC50 (µM) estimate
T11 construct: DSM 301
How it was run: as §3

[14] = tested on: T12, L. reuteri; assay: microbe, parasite or virus in culture; parameters: Microbial growth in liquid dilution assay, OD600 relative to DMSO control; details: Limosilactobacillus reuteri; estimated IC50; read-out: L. reuteri, IC50 (µM) estimate
T12 construct: DSM 20016
How it was run: as §3

[15] = tested on: T4, CTL2-GFP (C. trachomatis L2/434/Bu, GFP-expressing); assay: microbe, parasite or virus in culture; parameters: C. trachomatis growth in HeLa, dose-response, mean of bulk GFP fluorescence and imaged total inclusion area; details: Chlamydia trachomatis, HeLa, 28.5 h; mean of GFP and inclusion area
How it was run: as §1

[16] = tested on: T13, G. vaginalis; assay: microbe, parasite or virus in culture; parameters: Microbial growth in liquid dilution assay, OD600 relative to DMSO control; details: Gardnerella vaginalis, read-out: G. vaginalis, IC50 (µM) estimate
T13 construct: DSM 4944

[17] = tested on: T7, C. trachomatis L2/434/Bu expressing GFP (CTL2-GFP); assay: microbe, parasite or virus in culture; parameters: C. trachomatis GFP growth in infected HeLa cells, bulk GFP fluorescence normalised to DMSO; details: Chlamydia trachomatis, HeLa, 26 h; read-out: IC50 (µM), bulk GFP fluorescence
Description: as §2

[18] = tested on: T7, C. trachomatis L2/434/Bu expressing GFP (CTL2-GFP); assay: microbe, parasite or virus in culture; parameters: species or system HeLa; C. trachomatis total inclusion area by high-content imaging, normalised to DMSO; details: Chlamydia trachomatis, 28.5 h; read-out: MIC (µM), total inclusion area
Text: (§4) We screened a library of 36,785 small molecules displaying drug-like properties and covering a wide chemical space (Fig 1A and S2A Data). In this process, we also complemented the assay described above with an imaging-based readout (Fig 1B). After measurements of bulk GFP and resorufin fluorescence, cells were fixed, stained with the DNA dye Hoechst, and imaged at a high-content imaging platform to detect chlamydial inclusions (GFP) and host cell nuclei (Hoechst). The total area and number of inclusions in individual wells and the number of nuclei then served as additional proxies for chlamydial growth and host cell viability. […] MICs were calculated as described above.

[19] = tested on: T4, CTL2-GFP (C. trachomatis L2/434/Bu, GFP-expressing); parameters: species or system HeLa; Intracellular C. trachomatis growth in HeLa cells, bulk GFP fluorescence relative to DMSO; details: 28.5 h, 10 µM; inhibitor
[20] = tested on: T7, C. trachomatis L2/434/Bu expressing GFP (CTL2-GFP); parameters: species or system HeLa; C. trachomatis total inclusion area by high-content imaging, normalised to DMSO; details: 28.5 h, 10 µM; inhibitor
Text: as §4, with “In” for “We screened a library of 36,785 small molecules displaying drug-like properties and covering a wide chemical space (Fig 1A and S2A Data). In”

[21] = in vitro; details: human, hela cells
[22] = biological target: T6, ctFabH (CTL2 FabH), His6(-fMet)SG-ctFabH; assay: continuous UV assay of acetoacetyl-CoA at […] nm; assay type: biochemical; details: 20 µM enzyme, 100 µM acetyl-CoA, 100 µM malonyl-CoA, pH 8.0, 25 °C, 50 mM MgCl2; surrogate of malonyl-ACP
[23] = in vitro; parameters: Viability of infected HeLa host cells, resazurin conversion, bulk resorufin fluorescence relative to DMSO; details: human, hela cells; bulk resorufin, single well
[24] = biological target: T1, acyl-modification-free ctFabH; assay: intact protein LC/MS; assay type: biochemical; details: covalent acyl-enzyme intermediate; 10 µM protein, 50 µM acyl-CoA, pH 7.0

## O=C1Oc2nc3ccccc3cc2CN1C1CC1 [c1e]
[1]
  intact protein LC/MS; MS/MS of tryptic peptides: incubation with c1e generated an FabH-c1e adduct
[2]
  IC50: > 30 µM
[3]
  IC50: > 30 µM
[4]
  MIC: 0.042 µM (≈ 0.0101 µg/mL)
[5]
  IC50: > 30 µM
[6]
  inhibition: c1e displayed inhibitory activity towards ctFabH when added at about equimolar concentration
[7]
  IC50: 0.0199 µM
[8]
  MIC: 0.038 µM (≈ 0.00913 µg/mL)
[9]
  viability at 28.5 h, 0.000416667 µM: 95.3%
  viability at 28.5 h, 0.00125 µM: 82.8%
  viability at 28.5 h, 0.00375 µM: 88.7%
  viability at 28.5 h, 0.0123333 µM: 87.6%
  viability at 28.5 h, 0.037 µM: 93.9%
  viability at 28.5 h, 0.111 µM: 89.2%
  viability at 28.5 h, 0.333 µM: 91.7%
  viability at 28.5 h, 1 µM: 89.5%
  viability at 28.5 h, 3 µM: 98.2%
  viability at 28.5 h, 10 µM: 103%
  viability at 28.5 h, 30 µM: 46.5%
[10]
  IC50: > 30 µM
[11]
  IC50: > 30 µM
[12]
  IC50: > 30 µM
[13]
  IC50: > 30 µM
[14]
  IC50: > 30 µM
[15]
  IC50: 0.0213 µM
[16]
  IC50: > 30 µM
[17]
  IC50: 0.0226 µM
[18]
  MIC: 0.046 µM (≈ 0.0111 µg/mL)

## CCn1cc(C(=O)O)c(=O)c2cc(F)c(NC3CCCCC3)cc21 [CBK286635]
[19]
  % of control remaining: 100.652
[20]
  % of control remaining: 72.3144
[21]
  viability at 28.5 h, 10 µM: 89.2%

## CC(C)(COP(=O)(O)OP(=O)(O)OC[C@H]1O[C@@H](n2cnc3c(N)ncnc32)[C@H](O)[C@@H]1OP(=O)(O)O)[C@@H](O)C(=O)NCCC(=O)NCCSC(=O)CC(=O)O [malonyl-CoA]
[22]
  continuous UV assay of acetoacetyl-CoA at 302 nm: using acetyl-CoA and malonyl-CoA (instead of malonyl-ACP) as substrates

## O=C(c1cccc(S(=O)(=O)F)c1)N1CCCCC1 [CBK074224]
[23]
  viability at 28.5 h, 10 µM: 96.6%

## CC[C@H](C)C(=O)SCCNC(=O)CCNC(=O)[C@H](O)C(C)(C)COP(=O)(O)OP(=O)(O)OC[C@H]1O[C@@H](n2cnc3c(N)ncnc32)[C@H](O)[C@@H]1OP(=O)(O)O [2-methylbutyryl-CoA]
[24]
  intact protein LC/MS: incubation of this stripped ctFabH with 2-methylbutyryl-CoA or isovaleryl-CoA
